Where a SMILES comes first, the peptide text is derived from it. [ ]: non-standard residue; d: D form.
Test: Displacement of [125I]-ET-1 from Endothelin A receptor of rabbit renal artery vascular smooth muscle cells

CC[C@H](C)[C@H](NC(=O)[C@H](CC(=O)O)NC(=O)[C@H](CCC(=O)O)NC(=O)[C@@H](Cc1ccccc1)NC(C)=O)C(=O)N[C@H](C(=O)N[C@@H](Cc1c[nH]c2ccccc12)C(=O)O)[C@@H](C)CC [(S)-4-((R)-2-Acetylamino-3-phenyl-propionylamino)-4-((S)-2-carboxy-1-{(S)-1-[(S)-(S)-1-((S)-1-carboxy-2-(S)-1H-indol-3-yl-ethylcarbamoyl)-2-methyl-butylcarbamoyl]-2-methyl-butylcarbamoyl}-ethylcarbamoyl)-butyric acid] (Ac-[dF]EDIIW-OH)
IC50: 650 nM
